Reference: patent publication US3966957A, “Method for controlling emesis with N-(1-substituted-3-pyrrolidinyl)benzamides and thiobenzamides” (A. H. Robins Company, Incorporated, priority 1974, dated 1976)

Columns and labels:
[1] = system: apomorphine-induced emesis; test: Reduction of apomorphine-induced emesis in dogs, subcutaneous administration; type: in vivo, dog; conditions: for ED50: Canis lupus familiaris, sc, read-out: ED50, Anti-Emetic Effect of Subcutaneous Administration
Description: (§1) The anti-emetic properties of the compounds of Formulae I and II were established using a modification of the methods of Chen and Ensor, J. Pharmac. Exp. Ther. 98: 245-250 (1950) and of Leonard et al, J. Pharmac. Exp. Ther. 154, 339-345 (1966). Drug activity was assessed by its ability to reduce the frequency of apomorphine-induced emesis in dogs. The dogs were prescreened for fairly constant emetic responses to the subcutaneous administration of 0.1 mg./kg. of apomorphine hydrochloride, and those which vomited five or more times in the 40-minute period after apomorphine administration were selected for drug studies.
(§2) Groups of three dogs were used in preliminary tests and for the determinations of time of peak drug effect. Dose response curves were usually obtained using four drug-treated groups; each group contained at least three dogs. The dogs were fed approximately 17 hours prior to a test. Drugs were administered and at suitable intervals the dogs received 0.1 mg/kg of apormorphine hydrochloride subcutaneously. Frequency of emesis was determined during the next 40 minutes and emesis was counted as the actual expulsion of stomach contents.
In oral studies, drugs were administered in gelatin capsules (controls received an empty capsule). In the subcutaneous studies, drugs were administered in distilled water and/or polyethylene glycol-300.
Dogs were re-used at intervals of not less than one week. The ED50 is the dose which reduces the frequency of emesis of drug treated dogs to a value 50% below that of controls. Mean frequency of emesis for each drug treated group was compared with a mean control value derived by pooling the prior control emetic frequencies for all dogs used on that test day. The difference is expressed as a percentage decrease relative to controls. The per cent decrease in mean frequency of emesis for each drug-treated group (ordinate) was plotted against log dose (abscissa) on semi-log graph sheets. The ED50 was calculated by the method of Goldstein (Biostatistics, An Introductory Test; Pages 156-161; The MacMillan Co., New York, 1964).
Three dogs selected as described above were injected subcutaneously with 5.0 mg./kg. (3.12 mg./kg. expressed as free base) of the test drug 4-amino-N-(1-cyclohexyl-3-pyrrolidinyl)-N-methyl-benzamide cyclohexane-sulfamate from compound Example 4. One hour later apormorphine hydrochloride was administered in doses of 0.1 mg./kg. subcutaneously. Complete blockage of emesis (-100%) was observed over the 40-minute period following administration of apomorphine hydrochloride. […] (0.27 mg./kg. expressed as free base) was established for subcutaneous administration of the test drug.
Using the technique described in the foregoing general procedure and pharmacology in Example 1 for subcutaneous evaluation of test drugs against apomorphine induced emesis, results for additional compounds were obtained as shown in Table 4.

[2] = system: apomorphine-induced emesis; test: Reduction of apomorphine-induced emesis in dogs, oral administration; type: in vivo, dog
Description: as §1
as §2, with “Drugs were administered and at suitable intervals the dogs received 0.1 mg/kg of apormorphine hydrochloride subcutaneously.” left out, “contents. […]” for “contents.”
Dogs were re-used at intervals of not less than one week. […] The difference is expressed as a percentage decrease relative to controls. […] The ED50 was calculated by the method of Goldstein (Biostatistics, An Introductory Test; Pages 156-161; The MacMillan Co., New York, 1964). […]

catalepsy = test: Catalepsy in rats (IP), modified Tedeschi procedure; type: in vivo, rat; conditions: IP administration in rats, as free base (Table 7)
Description: (§3) Drugs were blind tested with positive and negative controls. […] The modified procedure is as follows.
(§4) Groups of six rats are dosed (IP) with drugs in saline solution and tested hourly over a six hour period. A phenothiazine or non-phenothiazine reference standard is tested concomitantly as a positive control; negative controls receive only the saline vehicle. After administration the rats are positioned hourly with each foot on a No. 7 rubber stopper. A rat is considered cataleptic if it remains immobile on the stoppers for five seconds or longer at two or more consecutive hourly observation intervals.

[3] = as above; type: in vivo, rat; conditions: rat, in vivo; IP administration in rats; as free base (Table 7)
Description: as §3, §4

CC(=O)Nc1ccc(C(=O)NC2CCN(C3CCCCC3)C2)cc1 (stereo not drawn) [Example 7, N-(1-Cyclohexyl-3-pyrrolidinyl)-4-acetamidobenzamide]
ED50 [1]: 2.4 mg/kg

O=C(NC1CCN(c2ccccc2)C1)c1ccc([N+](=O)[O-])cc1 (stereo not drawn) [Example 3, N-(1-Phenyl-3-pyrrolidinyl)-4-nitrobenzamide]
reduction in emesis ([1]; dogs, subcutaneous, dose level of 5 mg./kg. (Table 4 footnote a)): 50%

CN(C(=O)c1ccc(N)cc1)C1CCN(C2CCCCC2)C1 (stereo not drawn) [Example 4, 4-Amino-N-(1-cyclohexyl-3-pyrrolidinyl)-N-methylbenzamide Cyclohexanesulfamate]
change in frequency of apomorphine-induced emesis ([1]; subcutaneous 5.0 mg./kg. (3.12 mg./kg. as free base), 1 h before apomorphine 0.1 mg./kg. s.c., 40-minute observation, dogs): -100%
change in apomorphine induced emesis ([2]; oral 2.5 mg./kg. in capsules, 2 h before apomorphine 0.1 mg./kg. s.c.): -95%
Catalepsy (As Free Base), ED50 or other: highest dose without catatonia (catalepsy): no catatonia to 125

O=C(NC1CCN(C2CCCCC2)C1)c1cc([N+](=O)[O-])cc([N+](=O)[O-])c1 (stereo not drawn) [Example 12]
ED50 [1]: 0.15 mg/kg

O=C(NC1CCN(C2CCCCC2)C1)c1ccccc1 (stereo not drawn) [Example 24]
reduction in emesis ([2]; oral, dose level of 5 mg./kg. (Table 5 footnote a)): 60%

O=C(NC1CCN(C2CCCCC2)C1)c1ccc(F)cc1 (stereo not drawn) [Example 10]
ED50 [1]: 0.15 mg/kg

Nc1ccc(C(=O)NC2CCN(C3CCCCC3)C2)cc1 (stereo not drawn) [Example 23]
Catalepsy (As Free Base), percent of rats cataleptic (catalepsy; at 94.2 mg/kg): 33%

CN(C(=O)c1ccc([N+](=O)[O-])cc1)C1CCN(C2CCCCC2)C1 (stereo not drawn) [Example 27]
Catalepsy (As Free Base), ED50 or other: highest dose without catatonia (catalepsy): no catatonia to 100
lethal dose (catalepsy): 100 mg/kg

O=C(NC1CCN(C2CCCCC2)C1)c1ccc([N+](=O)[O-])cc1 (stereo not drawn) [Example 25]
ED50 [3]: 28 mg/kg
